Data on one compound can be found in patent publication US20080175900A1, “PHARMACEUTICAL FORMULATIONS OF AN ANHYDRATE CRYSTAL FORM OF 2-(3-FLUORO-4-HYDROXYPHENYL)-7-VINYL-1,3-BENZOXAZOL-5-OL” (WYETH, priority 2006, published 2008).

Molecules are shown by their SMILES.

The data set can be described thus: Conversion of the crystal form when suspended and stirred in a solvent at room temperature. Format: physicochemical. From the text: The anhydrate crystal form (Form B) can be converted to other crystal forms under suitable conditions. […] 6, 2006).

On to `C=Cc1cc(O)cc2nc(-c3ccc(O)c(F)c3)oc12` [Form B, 2-(3-fluoro-4-hydroxyphenyl)-7-vinyl-1,3-benzoxazol-5-ol], for which the “crystal form obtained after suspending and stirring in ethanol” value (suspended and stirred in ethanol at room temperature for three days) is “another anhydrate crystal form is obtained”. For the same compound, the “crystal form obtained after suspending and stirring in methanol” value (suspended and stirred in methanol at room temperature for one day) is listed as “another anhydrate crystal form is obtained”. For the same compound, the “crystal form obtained after suspending and stirring in water” value (suspended and stirred in water at room temperature for three days) is “a hydrate crystal form is obtained”.
